Experiments:
[1] = test system: MGMT positive human melanoma cells A375; assay: Colony formation assay (cytotoxicity), A375 melanoma cells; format: cell-based; conditions: 48-hour drug incubation, colonies counted 7-10 days later, compared at similar concentrations (FIG. 2)
Method: (§1) The cytotoxicity of TMZ, POH-TMZ, and POH-TMZ-Linoleate were studied by colony formation assay of A2058 and A375 melanoma cells. A2058 and A375 cells were harvested and made single cell suspension in culture medium (DMEM with 10% FBS, 1% Penicillin/Streptomycin). 500 cells/well were seeded into 12-well plate (tissue culture treated, from Olympus Plastics) pre-warmed culture medium at 37° C. The cells were cultured overnight for attachment to the plate. Then the medium was removed and replaced with fresh medium containing varied concentrations of drugs (or no drugs as a control) for further 48-hour incubation. After 48 hours treatment, the medium was aspirated and replaced with normal culture medium. 7-10 days later, the culture medium was aspirated, and the colonies formed inside the wells were washed with cold PBS once. Then the colonies were stained with 0.1% methylene blue (in methanol) for 4-6 hours. The plates were then washed and the formed colonies counted (the colonies formed with 20 cells or more are countable).

[2] = test system: human melanoma tumor cells, A2058; assay: In vivo tumor growth inhibition, subcutaneous A2058 melanoma in nude mice, topical treatment, with CD31 histology
Method: Inhibition of tumor growth by POH-TMZ-linoleate was studied in nude mice. Nude mice were injected subcutaneously with 2×10^6 human melanoma tumor cells, A2058. The melanoma cells were allowed to form a palpable nodule in the mice. When the tumor size reached 1.0-1.5 cm in diameter in any dimension, a control mouse was treated topically with a vehicle (10% DMSO in 45% Glycerol+45% ethanol), and a test mouse was topically treated with TPL (50 mM TPL working solution was reconstituted in 45% Glycerol+45% Ethanol, and 100 μl (25 mg/kg) was applied topically on the skin which covers the whole tumor). The control mouse and the test mouse were both treated twice daily for 14 days.
After the 14 days of treatment the mice were sacrificed, the tumor removed, sectioned at 8 μm, fixed with acetone, and stored at −20° C. For histological analysis, the tissues were blocked with sea block and stained with the primary antibody Rat anti Mouse (1:50) overnight following which secondary biotinylated goat anti rat antibody (1:200) was added for 45 minutes, washed and avidin biotin complex, ABC elite was added for 30 minutes, washed and then stained with AEC and counter stained with hematoxylin. Such staining was used to evaluate the endothelial marker CD31 expression, which is representative of the amounts of blood vessels in the tumor. Staining images were captured at 40× under optical microscope. […] The histological analysis results were further quantified using ImageJ software by measuring the average area of staining in the tumors of the test mouse after TPL treatment and the control mouse, where the average area of staining was calculated based on the red precipitate of the stain in μm^2. From FIG. 5, it can be seen that the average area of staining is much smaller in the tumor of the test mouse than that in the control mouse.

[3] = test system: MGMT negative human melanoma cells A2058; assay: Colony formation assay (cytotoxicity), A2058 melanoma cells; format: cell-based; conditions: 48-hour drug incubation, colonies counted 7-10 days later, compared at similar concentrations (FIG. 1)
Method: as §1

SMILES	colonies count (effectiveness in killing the melanoma cells) [1]	tumor angiogenesis (CD31 staining, visual inspection) versus vehicle-treated mouse ([2]; after 14 days of topical treatment, FIGS. 4D-4F vs 4A-4C)	average area of CD31 staining in the tumor versus control mouse ([2]; after 14 days of topical treatment, ImageJ quantification, FIG. 5)	vascularization of the tumor compared with the tumor before the treatment ([2]; topical 25 mg/kg twice daily for 14 days, FIG. 3B vs FIG. 3A)	appearance of the tumor surface after treatment ([2]; topical 50 mM, 100 μl (25 mg/kg) twice daily for 14 days, FIG. 3B)	colonies count (effectiveness in killing the melanoma cells) [3]
C=C(C)[C@@H]1CC=C(COC(=O)N(C(=O)CCCCCCC/C=C\C/C=C\CCCCC)C(=O)c2ncn3c(=O)n(C)nnc23)CC1 [POH-TMZ-linoleate, (3-Methyl-4-oxo-3,4-dihydro-imidazo[5,1-d][1,2,3,5]tetrazine-8-carbonyl)-octadeca-9,12-dienoyl-carbamic acid 4-isopropenyl-cyclohex-1-enylmethyl ester]	more effective in killing the melanoma cells than POH-TMZ	much lower	much smaller	reduced vascularization	developed a hard surface	more effective in killing the melanoma cells than POH-TMZ
C=C(C)[C@@H]1CC=C(COC(=O)NC(=O)c2ncn3c(=O)n(C)nnc23)CC1 [POH-TMZ, reference compound]	more effective than TMZ					more effective than TMZ
